# Source: US8440646B1 (priority 2006, dated 2013)
# Read-outs that look alike come from different tables or passages of the source.
# Experiments:
# B. anthracis Vollum1B = assay: microbe, parasite or virus in culture; assay type: cell-based; conditions: Bacillus anthracis
# B. anthracis Sterne = assay: microbe, parasite or virus in culture; assay type: cell-based; conditions: Bacillus anthracis
# B. anthracis Ame = assay: microbe, parasite or virus in culture; assay type: cell-based; conditions: Bacillus anthracis
# B. anthracis V770 = assay: microbe, parasite or virus in culture; assay type: cell-based; conditions: Bacillus anthracis
# S. pneumoniae 157E [1] = system: S. pneumoniae 157E; design: species or system mice; conditions: mouse, in vivo
# S. pneumoniae 700905 [2] = system: S. pneumoniae 700905; design: species or system mice; conditions: mouse, in vivo
# B. cereus 98/2620 = assay: microbe, parasite or virus in culture; assay type: cell-based; conditions: Bacillus cereus
# B. cereus 95/3032 = assay: microbe, parasite or virus in culture; assay type: cell-based; conditions: Bacillus cereus
# B. cereus 98/2658 = assay: microbe, parasite or virus in culture; assay type: cell-based; conditions: Bacillus cereus
# B. cereus 97/4144 = assay: microbe, parasite or virus in culture; assay type: cell-based; conditions: Bacillus cereus
# S. aureus MRSA5 = assay: microbe, parasite or virus in culture; assay type: cell-based; conditions: Staphylococcus aureus
# E. faecium 494 = assay: microbe, parasite or virus in culture; assay type: cell-based; conditions: Enterococcus faecium
# S. pneumoniae 700905 [3] = assay: microbe, parasite or virus in culture; assay type: cell-based; conditions: Streptococcus pneumoniae
# E. faecalis 29212 = assay: microbe, parasite or virus in culture; assay type: cell-based; conditions: Enterococcus faecalis
# S. pneumoniae PBS1339 = system: S. pneumoniae PBS1339; design: species or system mice; conditions: mouse, in vivo
# COS-1 = conditions: African green monkey
# CHO-K1 = conditions: Chinese hamster
# S. aureus RN450 = assay: microbe, parasite or virus in culture; assay type: cell-based; conditions: Staphylococcus aureus
# S. aureus RN4250 = assay: microbe, parasite or virus in culture; assay type: cell-based; conditions: for MIC: Staphylococcus aureus, RN4250
# S. pneumoniae 157E [4] = assay: microbe, parasite or virus in culture; assay type: cell-based; conditions: Streptococcus pneumoniae
# [5] = system: Protein synthesis of S. aureus RN450; assay: microbe, parasite or virus in culture; assay type: cell-based; conditions: for IC50 / IC90: Staphylococcus aureus; for IC50: read-out: Protein synthesis IC50; for IC90: read-out: Protein synthesis IC90
# [6] = system: Peptidoglycan synthesis of S. aureus RN450; assay: microbe, parasite or virus in culture; assay type: cell-based; conditions: Staphylococcus aureus; for IC50: read-out: Peptidoglycan synthesis IC50; for IC90: read-out: Peptidoglycan synthesis IC90
# protein synthesis = conditions: cited from earlier work
# 16S rRNA = conditions: cited from earlier work
Compound,PD50 (S. pneumoniae 157E [1]; iv) [mg/kg],PD50 (S. pneumoniae 700905 [2]; po) [mg/kg],MIC (B. cereus 98/2620) [mg/L],MIC (B. cereus 95/3032) [mg/L],MIC (B. cereus 98/2658) [mg/L],MIC (B. cereus 97/4144) [mg/L],MIC (S. aureus MRSA5) [mg/L],MIC (E. faecium 494) [mg/L],MIC (S. pneumoniae 700905 [3]) [mg/L],MIC (E. faecalis 29212) [mg/L],MIC (S. aureus RN450) [mg/L],IC50 [5] [mg/L],IC90 [5] [mg/L],IC50 [6] [mg/L],IC90 [6] [mg/L],effect on reactivity of nucleotides within the 16S rRNA (chemical footprint) (16S rRNA),further results
"O=C(O)c1cn(C2CC2)c2cc(N3CCNCC3)c(F)cc2c1=O [Ciprofloxacin, reference compound]",>50,>50,,,,,,,,,,,,,,,MIC (B. anthracis Vollum1B): 0.25 mg/L; MIC (B. anthracis Sterne): 0.25 mg/L; MIC (B. anthracis Ame): 0.25 mg/L; MIC (B. anthracis V770): 0.12 mg/L
CCC[C@@H]1C[C@@H](C(=O)N[C@@H]([C@H]2O[C@H](SC)[C@H](O)[C@@H](O)[C@H]2O)[C@H](C)Cl)N(C)C1 [Clindamycin],,,0.25,0.5,0.5,0.5,,,,,,,,,,,
CN(C)c1cc(CN2CCC(F)(F)CC2)c(O)c2c1C[C@H]1C[C@H]3[C@H](N(C)C)C(O)=C(C(N)=O)C(=O)[C@@]3(O)C(O)=C1C2=O [Compound H],1.1,12.7,,,,,0.35,0.5,0.06,0.5,,,,,,,MIC (B. anthracis Vollum1B): < 0.03 mg/L; MIC (B. anthracis Sterne): < 0.03 mg/L; MIC (B. anthracis Ame): < 0.03 mg/L; MIC (B. anthracis V770): < 0.03 mg/L; IV and PO efficacy in words (S. pneumoniae 157E [1]): exhibits IV and PO efficacy; PD50 (S. pneumoniae 157E [1]; po): 5 mg/kg; oral activity in words (S. pneumoniae 157E [1]; po): exhibited oral activity; PD50 (S. pneumoniae 700905 [2]; iv): 2.2 mg/kg; efficacy in model of lung infection in words (S. pneumoniae PBS1339): efficacious; PD50 (S. pneumoniae PBS1339; iv): <5.0 mg/kg; PD50 (S. pneumoniae PBS1339; po): 3.6 mg/kg; Tox50 (COS-1): >100 µg/mL; Tox50 (CHO-K1): >100 µg/mL
CC[C@H]1OC(=O)[C@H](C)[C@@H](O[C@H]2C[C@@](C)(OC)[C@@H](O)[C@H](C)O2)[C@H](C)[C@@H](O[C@@H]2O[C@H](C)C[C@H](N(C)C)[C@H]2O)[C@](C)(O)C[C@@H](C)C(=O)[C@H](C)[C@@H](O)[C@]1(C)O [Erythromycin],,,0.06,0.125,1,0.125,,,,,,,,,,,
"CN(C)c1ccc(O)c2c1C[C@H]1C[C@H]3[C@H](N(C)C)C(O)=C(C(N)=O)C(=O)[C@@]3(O)C(O)=C1C2=O [Minocycline, reference compound]",0.53,>50,0.5,≤ 0.06,≤ 0.06,0.5,2,16,8,4,0.25,< 0.03,0.1,4.6,20.9,affect the reactivity of nucleotides,susceptibility in words (S. aureus RN4250): susceptible; MIC (S. aureus RN4250): 0.5 mg/L; MIC (S. pneumoniae 157E [4]): 0.06 mg/L; PD50 (S. pneumoniae 157E [1]; po): 1.5 mg/kg; PD50 (S. pneumoniae 700905 [2]; iv): >50 mg/kg; PD50 (S. pneumoniae PBS1339; iv): 4.5 mg/kg; PD50 (S. pneumoniae PBS1339; po): 3.6 mg/kg; inhibition of protein synthesis in words (protein synthesis): potent inhibitors of protein synthesis
"CN(C)C1C(O)=C(C(N)=O)C(=O)C2(O)C(O)=C3C(=O)c4c(O)cccc4C(C)(O)C3CC12 (centres unmarked) [Tetracycline, reference compound]",,,32,≤ 0.06,≤ 0.06,64,32,64,32,16,0.06,< 0.03,0.11,> 32,> 32,affect the reactivity of nucleotides,susceptibility in words (S. aureus RN4250): resistant; MIC (S. aureus RN4250): 64 mg/L; MIC (S. pneumoniae 157E [4]): 0.06 mg/L; inhibition of protein synthesis in words (protein synthesis): potent inhibitors of protein synthesis
"CN(C)c1cc(NC(=O)CNC(C)(C)C)c(O)c2c1C[C@H]1C[C@H]3[C@H](N(C)C)C(O)=C(C(N)=O)C(=O)[C@@]3(O)C(O)=C1C2=O [Tigecycline, reference compound]",,,,,,,,,,,2,0.12,0.68,> 32,> 32,chemical footprint similar to that of tetracycline,macromolecular synthesis profile in words [5]: profile similar to class I compounds
CN[C@H](CC(C)C)C(=O)N[C@H]1C(=O)N[C@@H](CC(N)=O)C(=O)N[C@H]2C(=O)N[C@H]3C(=O)N[C@H](C(=O)N[C@H](C(=O)O)c4cc(O)cc(O)c4-c4cc3ccc4O)[C@H](O)c3ccc(c(Cl)c3)Oc3cc2cc(c3O[C@@H]2O[C@H](CO)[C@@H](O)[C@H](O)[C@H]2O[C@H]2C[C@](C)(N)[C@H](O)[C@H](C)O2)Oc2ccc(cc2Cl)[C@H]1O [Vancomycin],,,1,1,2,1,,,,,,,,,,,
